Source: PMC6128262 (Analytical chemistry, 2018)

How the values were obtained:
CIAP = conditions: read-out: Km value of ATP for CIAP; molybdenum blue based assay; cited from earlier work
HpMTAN = conditions: read-out: Km value for AdoHcy (HpMTAN); previously measured; cited from earlier work
[1] = tested on: N[C@@H](Cc1c[nH]cn1)C(=O)O; assay: purified protein, by the assay type; conditions: pH 8.0; 25.0 °C

Molecule: Nc1ncnc2c1ncn2[C@@H]1O[C@H](COP(=O)(O)OP(=O)(O)OP(=O)(O)O)[C@@H](O)[C@H]1O [ATP]
- Km (CIAP): 20.5 µM

Molecule: Nc1ncnc2c1ncn2[C@@H]1O[C@H](CSCC[C@H](N)C(=O)O)[C@@H](O)[C@H]1O [AdoHcy, S-adenosylhomocysteine]
- Km (HpMTAN): 5 µM

Molecule: EgtD (Mycobacterium tuberculosis H37Rv)
- Km [1]: 330 ± 35 µM
